Experimental data taken from patent US7074761B1, “Peptides and production and use thereof” (Takeda Chemical Ind., Ltd., priority 1996, dated 2006).
Where a SMILES comes first, the peptide text is derived from it. Bridges are numbered along the chain shown (N, C = ends).

Assays:
human SSTR4 = biological target: T1, human SSTR4 (Homo sapiens, UniProt P31391); assay: [125I]-somatostatin binding inhibition, SSTR4 CHO cell membrane fraction; details: 25° C., 60 minutes
T1 construct: expressed in transfected cells; host or cells: CHO(dhfr-) cells, clone SSTR4-1-2, plasmid pA-1-11-SSTR4 (vector pAKKO-111)
Procedure: CHO(dhfr^−) cells (1×10^6 cells) were cultured on HAM F12 medium containing 10% fetal bovine serum in a dish with a diameter of 8 cm for 24 hours. Into these cells was introduced 10 μg of the human SSTR4 DNA expression plasmid pA-1-11-SSTR4 obtained as described above in (2) by the calcium phosphate method (Cell Phect Transfection Kit; Pharmacia). At 24 hours after transfection, the medium was exchanged for DMEM containing 10% dialyzed fetal bovine serum, and cells forming a colony on this medium (namely DHFR^+ cells) were selected. Further, the cells selected were treated by the limiting dilution method for cloning from a single cell, and the cells thus cloned were measured for their somatostatin receptor protein expression ability by the binding assay described in Reference Example 1 (3). In this manner, a cell line with high somatostatin-binding activity, SSTR4-1-2, was selected.
The human somatostatin receptor expressing CHO cell lines SSTR1-8-3, SSTR2-HS5-9, SSTR3-15-19, SSTR4-1-2 and SSTR5-32-4 (10^9 cells each) were respectively suspended in phosphate buffered physiological saline supplemented with 5 mM EDTA (PBS-EDTA) and centrifuged. To each cell pellet was added 10 ml of cell homogenation buffer (10 mM NaHCO3, 5 mM EDTA, pH=7.5), followed by homogenation with a Polytron homogenizer. The homogenate was centrifuged at 400×g for 15 minutes, and the supernatant obtained was further centrifuged at 100,000×g for 1 hour to give a membrane fraction as a precipitate. […]
The membrane fractions prepared in Reference Example 6 were each diluted to 3 μg/ml with assay buffer. […] After filtration, the radioactivity of [^125I]-somatostatin remaining on the filter paper was measured. For each test substance, the binding inhibition percentage (%) was calculated according to the formula: PBM=(B−NSB)/(B0−NSB)×100 (where PBM: percent maximum binding; B: radioactivity when the test sample is added; B0: maximum bound radioactivity; NSB: non-specifically bound radioactivity). […]

human SSTR3 = biological target: T2, human SSTR3 (Homo sapiens, UniProt P32745); assay: cAMP accumulation inhibiting activity in SSTR3 expressing CHO cells (forskolin stimulated); type: cell-based; details: forskolin 10 μM, CHO cells SSTR3-15-19; read-out: ED50, inhibition of intracellular cAMP accumulation, SSTR3
T2 construct: expressed in transfected cells; host or cells: CHO(dhfr-) cells, clone SSTR3-15-19, plasmid pA-1-11-SSTR3 (vector pAKKO-111)
Procedure: For measuring the intracellular accumulations of cyclic adenosine 3′,5′-monophosphate (cAMP), the human somatostatin receptor expressing cell lines SSTR2-HS5-9, SSTR3-15-19, SSTR4-1-2 and SSTR5-32-4 respectively described in Reference Example 2 (3), Reference Example 3 (3), Reference Example 4 (3) and Reference Example 5 (3) were multiplied on 24-well plates until confluency. Said cells were washed with two 1-ml portions of medium A [Dulbecco-'s modified Eagle's medium (DMEM), 20 mM 2-[4-(2-hydroxyethyl)-1-piperazinyl]ethanesulfonic acid (HEPES) (pH. 7.5), 0.2% BSA, 0.2 mM 3-isobutyl-1-methylxanthine (IBMX)] and then 400 μl of medium A was added to each well and incubation was carried out at 37° C. for 1 hour. To each well were added 50 μl of a hCS-15 or hCS-17 solution (each diluted to a concentration 10 times the final concentration with medium A) and 50 μl of a forskolin solution (final concentration: 10 μM), and incubation was carried out at 37° C. for 30 minutes. The cells were washed with two 1-ml portions of medium A and then 500 μl of medium A and 100 μL of 20% aqueous perchloric acid solution were added to each well, followed by standing at 4° C. for 20 minutes for cell lysis. […] The amount of cAMP contained in this extract was determined using an Amersham's kit (cAMP EIA system).

T1 sequence (P31391 whole entry): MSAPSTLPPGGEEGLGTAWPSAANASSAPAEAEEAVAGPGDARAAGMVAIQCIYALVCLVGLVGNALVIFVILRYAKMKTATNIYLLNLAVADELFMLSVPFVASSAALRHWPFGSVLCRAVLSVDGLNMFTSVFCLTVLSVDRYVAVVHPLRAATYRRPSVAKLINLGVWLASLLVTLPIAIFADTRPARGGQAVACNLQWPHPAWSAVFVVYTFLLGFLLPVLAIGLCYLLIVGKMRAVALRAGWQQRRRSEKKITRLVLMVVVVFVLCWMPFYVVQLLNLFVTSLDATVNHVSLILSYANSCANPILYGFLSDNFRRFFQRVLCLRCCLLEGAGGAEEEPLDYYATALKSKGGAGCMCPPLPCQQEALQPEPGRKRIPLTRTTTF
T2 sequence (P32745 whole entry): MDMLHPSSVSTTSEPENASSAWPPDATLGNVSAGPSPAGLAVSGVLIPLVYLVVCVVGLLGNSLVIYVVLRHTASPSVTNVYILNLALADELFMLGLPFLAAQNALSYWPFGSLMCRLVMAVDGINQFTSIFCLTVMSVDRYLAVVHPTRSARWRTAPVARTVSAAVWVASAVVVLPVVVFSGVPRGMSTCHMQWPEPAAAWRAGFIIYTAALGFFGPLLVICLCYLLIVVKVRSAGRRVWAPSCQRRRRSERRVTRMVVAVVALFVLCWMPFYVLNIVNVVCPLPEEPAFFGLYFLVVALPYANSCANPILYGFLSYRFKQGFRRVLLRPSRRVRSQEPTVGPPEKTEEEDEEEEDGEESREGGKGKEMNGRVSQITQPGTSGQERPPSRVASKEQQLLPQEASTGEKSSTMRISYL

IC50 (human SSTR4) [nM]	EC50 (human SSTR3) [nM]	SMILES
0.6	1	CSCC[C@H](N)C(=O)N1CCC[C@H]1C(=O)N[C@H]1CSSC[C@@H](C(=O)N[C@@H](CCCCN)C(=O)O)NC(=O)[C@H](CO)NC(=O)[C@H](CO)NC(=O)[C@H](Cc2ccccc2)NC(=O)[C@H]([C@@H](C)O)NC(=O)[C@H](CCCCN)NC(=O)[C@H](Cc2c[nH]c3ccccc23)NC(=O)[C@H](Cc2ccccc2)NC(=O)[C@H](Cc2ccccc2)NC(=O)[C@H](CC(N)=O)NC(=O)[C@H](CCCNC(=N)N)NC1=O [hCS-15] (H-MPCRNFFWKTFSSCK-OH; disulfide 3-14; N-terminus and C-terminus assumed)
0.5	1	CSCC[C@H](NC(=O)[C@H](CCCNC(=N)N)NC(=O)[C@@H](N)CC(=O)O)C(=O)N1CCC[C@H]1C(=O)N[C@H]1CSSC[C@@H](C(=O)N[C@@H](CCCCN)C(=O)O)NC(=O)[C@H](CO)NC(=O)[C@H](CO)NC(=O)[C@H](Cc2ccccc2)NC(=O)[C@H]([C@@H](C)O)NC(=O)[C@H](CCCCN)NC(=O)[C@H](Cc2c[nH]c3ccccc23)NC(=O)[C@H](Cc2ccccc2)NC(=O)[C@H](Cc2ccccc2)NC(=O)[C@H](CC(N)=O)NC(=O)[C@H](CCCNC(=N)N)NC1=O [hCS-17]
